Measurements as given in ChEMBL document CHEMBL5634208, “Design and synthesis of Meldrum's acid based 7-azaindole anchored 1,2,3-triazole hybrids as anticancer agents” (RSC Med Chem, 2024).
Calls of active or inactive are those of the source. The rule behind the calls is not given here.

Experiments:
K562 [1] = experiment: Anticancer activity against human K562 cells assessed as inhibition of cell growth measured after 48 hrs by MTT assay; type: functional, cell-based; details: K562, 48 h
HeLa [2] = experiment: Induction of apoptosis in human HeLa cells assessed as necrotic cells at 1 uM measured after 48 hrs by annexin V-FITC based propidium iodide dual staining based flow cytometry analysis (reference value: 1.0%); type: functional
HeLa [3] = experiment: Induction of cell cycle arrest in human HeLa cells assessed as accumulation of cells at G0/G1 phase at 1 uM measured after 48 hrs by propidium iodide staining based flow cytometry analysis (reference value: 85.6%); type: functional
MCF7 = experiment: Anticancer activity against human MCF7 cells assessed as inhibition of cell growth measured after 48 hrs by MTT assay; type: functional, cell-based; details: MCF7, 48 h
HeLa [4] = experiment: Induction of apoptosis in human HeLa cells assessed as viable cells at 1 uM measured after 48 hrs by annexin V-FITC based propidium iodide dual staining based flow cytometry analysis (reference value: 81.7%); type: functional; details: read-out: Activity
HeLa [5] = experiment: Induction of apoptosis in human HeLa cells assessed as late apoptotic cells at 1 uM measured after 48 hrs by annexin V-FITC based propidium iodide dual staining based flow cytometry analysis (reference value: 3.5%); type: functional
HeLa [6] = experiment: Induction of apoptosis in human HeLa cells assessed as necrotic cells at 5 uM measured after 48 hrs by annexin V-FITC based propidium iodide dual staining based flow cytometry analysis (reference value: 1.0%); type: functional
HeLa [7] = experiment: Induction of cell cycle arrest in human HeLa cells assessed as accumulation of cells at G2/M phase at 5 uM measured after 48 hrs by propidium iodide staining based flow cytometry analysis (reference value: 6.9%); type: functional
HeLa [8] = experiment: Induction of apoptosis in human HeLa cells assessed as early apoptotic cells at 1 uM measured after 48 hrs by annexin V-FITC based propidium iodide dual staining based flow cytometry analysis (reference value: 13.8%); type: functional
K562 [9] = experiment: Downregulation of EGFR expression in human K562 cells at 1 to 5 uM measured after 48 hrs by RT-qPCR analysis; type: functional, cell-based; details: dose 1-5 µM
HeLa [10] = experiment: Induction of cell cycle arrest in human HeLa cells assessed as accumulation of cells at S phase at 5 uM measured after 48 hrs by propidium iodide staining based flow cytometry analysis (reference value: 1.0%); type: functional
HeLa [11] = experiment: Induction of apoptosis in human HeLa cells assessed as early apoptotic cells at 5 uM measured after 48 hrs by annexin V-FITC based propidium iodide dual staining based flow cytometry analysis (reference value: 13.8%); type: functional
HeLa [12] = experiment: Induction of apoptosis in human HeLa cells assessed as viable cells at 5 uM measured after 48 hrs by annexin V-FITC based propidium iodide dual staining based flow cytometry analysis (reference value: 81.7%); type: functional; details: read-out: Activity
HeLa [13] = experiment: Induction of cell cycle arrest in human HeLa cells assessed as accumulation of cells at subG1 phase at 5 uM measured after 48 hrs by propidium iodide staining based flow cytometry analysis (reference value: 6.8%); type: functional
HeLa [14] = experiment: Induction of cell cycle arrest in human HeLa cells assessed as accumulation of cells at G0/G1 phase at 5 uM measured after 48 hrs by propidium iodide staining based flow cytometry analysis (reference value: 85.6%); type: functional
HeLa [15] = experiment: Induction of apoptosis in human HeLa cells assessed as late apoptotic cells at 5 uM measured after 48 hrs by annexin V-FITC based propidium iodide dual staining based flow cytometry analysis (reference value: 3.5%); type: functional
K562 [16] = experiment: Downregulation of MCL-1 expression in human K562 cells at 1 to 5 uM measured after 48 hrs by RT-qPCR analysis; type: functional, cell-based; details: dose 1-5 µM
HeLa [17] = experiment: Induction of cell cycle arrest in human HeLa cells assessed as accumulation of cells at subG1 phase at 1 uM measured after 48 hrs by propidium iodide staining based flow cytometry analysis (reference value: 6.8%); type: functional
HeLa [18] = experiment: Induction of cell cycle arrest in human HeLa cells assessed as accumulation of cells at S phase at 1 uM measured after 48 hrs by propidium iodide staining based flow cytometry analysis (reference value: 1.0%); type: functional
HeLa [19] = experiment: Induction of cell cycle arrest in human HeLa cells assessed as accumulation of cells at G2/M phase at 1 uM measured after 48 hrs by propidium iodide staining based flow cytometry analysis (reference value: 6.9%); type: functional
[20] = Cytotoxicity against HEK293 cells assessed as inhibition of cell growth measured after 48 hrs by MTT assay; type: toxicity, cell-based; details: human
HeLa [21] = experiment: Anticancer activity against human HeLa cells assessed as inhibition of cell growth measured after 48 hrs by MTT assay; type: functional, cell-based
DU-145 = experiment: Anticancer activity against human DU-145 cells assessed as inhibition of cell growth measured after 48 hrs by MTT assay; type: functional, cell-based; details: DU-145, 48 h
HepG2 = experiment: Anticancer activity against human HepG2 cells assessed as inhibition of cell growth measured after 48 hrs by MTT assay; type: functional, cell-based; details: HepG2, 48 h
K562 [22] = experiment: Downregulation of EGFR expression in human K562 cells measured after 48 hrs by RT-qPCR analysis; type: functional, cell-based; details: dose 1-5 µM
K562 [23] = experiment: Downregulation of MCL-1 expression in human K562 cells measured after 48 hrs by RT-qPCR analysis; type: functional, cell-based; details: dose 1-5 µM
HeLa [24] = experiment: Induction of apoptosis in human HeLa cells assessed as nuclear condensation at 1 to 5 uM measured after 48 hrs by Hoechst staining based fluorescent microscopic analysis; type: functional, cell-based; details: dose 1-5 µM

Row | IC50 (K562 [1]) | IC50 (MCF7) | IC50 (HeLa [21]) | IC50 (DU-145) | IC50 (HepG2) | SMILES | IC50 at 48 h [20] | further results
1 | 1.23 µM | 1.48 µM | – | – | – | COc1cccc2c1C(=O)c1c(O)c3c(c(O)c1C2=O)C[C@@](O)(C(=O)CO)C[C@@H]3O[C@H]1C[C@H](N)[C@H](O)[C@H](C)O1 [DOXORUBICIN] | – | Activity (HeLa [2]): 1.7%; Activity (HeLa [3]): 60%; viability at 1 µM (HeLa [4]): 75.6%; Activity (HeLa [5]): 3.1%; Activity (HeLa [6]): 0.5%; Activity (HeLa [7]): 52.7%; Activity (HeLa [8]): 19.6%; Activity (K562 [9]): Active; Activity (HeLa [10]): 2.6%; Activity (HeLa [11]): 30.3%; viability at 5 µM (HeLa [12]): 64.4%; Activity (HeLa [13]): 3.7%; Activity (HeLa [14]): 40.3%; Activity (HeLa [15]): 4.8%; Activity (K562 [16]): Active; Activity (HeLa [17]): 4.2%; Activity (HeLa [18]): 3%; Activity (HeLa [19]): 34.2%
2 | 26.8 µM | 25.4 µM | 25 µM | 37.8 µM | 49.4 µM | CC1(C)OC(=O)C(=Cc2cn(Cc3cn(-c4cc(Cl)cc(Cl)c4)nn3)c3ncccc23)C(=O)O1 | > 100 µM | –
3 | 14.5 µM | 20.2 µM | 9.68 µM | 14.7 µM | 28.4 µM | COc1cc(OC)cc(-n2cc(Cn3cc(C=C4C(=O)OC(C)(C)OC4=O)c4cccnc43)nn2)c1 | 81.7 µM | –
4 | 16.8 µM | 15.2 µM | 16.2 µM | 32.1 µM | 27.9 µM | CC1(C)OC(=O)C(=Cc2cn(Cc3cn(-c4ccc(I)cc4)nn3)c3ncccc23)C(=O)O1 | > 100 µM | –
5 | 14.3 µM | 13.1 µM | 9.52 µM | 18.8 µM | 20.1 µM | COc1cc(-n2cc(Cn3cc(C=C4C(=O)OC(C)(C)OC4=O)c4cccnc43)nn2)cc(OC)c1OC | 76.6 µM | –
6 | 16.1 µM | 18 µM | 12.8 µM | 15.4 µM | 21.9 µM | CC1(C)OC(=O)C(=Cc2cn(Cc3cn(-c4ccccc4Cl)nn3)c3ncccc23)C(=O)O1 | > 100 µM | –
7 | 17.2 µM | 20.1 µM | 12.8 µM | 28.4 µM | 26.6 µM | CC1(C)OC(=O)C(=Cc2cn(Cc3cn(-c4cccc(Cl)c4)nn3)c3ncccc23)C(=O)O1 | > 100 µM | –
8 | 19.1 µM | 20.8 µM | 18.9 µM | 22.8 µM | 37 µM | CC1(C)OC(=O)C(=Cc2cn(Cc3cn(-c4ccc(F)cc4)nn3)c3ncccc23)C(=O)O1 | > 100 µM | –
9 | 6.03 µM | 6.67 µM | 4.44 µM | 12.4 µM | 9.97 µM | Cc1ccc(-n2cc(Cn3cc(C=C4C(=O)OC(C)(C)OC4=O)c4cccnc43)nn2)cc1 | > 100 µM | Activity (K562 [22]): Dose-Dependent Effect; Activity (HeLa [2]): 1.5%; Activity (HeLa [3]): 72.2%; viability at 1 µM (HeLa [4]): 79.2%; Activity (HeLa [5]): 2.5%; Activity (HeLa [6]): 0.3%; Activity (HeLa [7]): 54.4%; Activity (HeLa [8]): 16.8%; Activity (HeLa [10]): 2.7%; Activity (HeLa [11]): 39.7%; Activity (K562 [23]): Dose-Dependent Effect; viability at 5 µM (HeLa [12]): 55.4%; Activity (HeLa [13]): 3.1%; Activity (HeLa [24]): Active; Activity (HeLa [14]): 39.1%; Activity (HeLa [15]): 4.6%; Activity (HeLa [17]): 6%; Activity (HeLa [18]): 2.1%; Activity (HeLa [19]): 20.7%
10 | 19.1 µM | 19.9 µM | 10.3 µM | 22.6 µM | 27.8 µM | CC1(C)OC(=O)C(=Cc2cn(Cc3cn(-c4ccc(Br)cc4F)nn3)c3ncccc23)C(=O)O1 | 90.8 µM | –
11 | 12.5 µM | 7.32 µM | 6.87 µM | 15.4 µM | 29.1 µM | CC1(C)OC(=O)C(=Cc2cn(Cc3cn(-c4ccc(Br)cc4)nn3)c3ncccc23)C(=O)O1 | 93.9 µM | –
12 | 16.4 µM | 36.1 µM | 15.9 µM | 33.8 µM | 42.1 µM | COc1ccc(-n2cc(Cn3cc(C=C4C(=O)OC(C)(C)OC4=O)c4cccnc43)nn2)cc1 | 99.7 µM | –
13 | 20.5 µM | 22.9 µM | 16.7 µM | 22.6 µM | 24.5 µM | CC1(C)OC(=O)C(=Cc2cn(Cc3cn(-c4ccc(Cl)cc4)nn3)c3ncccc23)C(=O)O1 | 97.3 µM | –
14 | 20.2 µM | 28.3 µM | 21.3 µM | 49.3 µM | 29.2 µM | CC1(C)OC(=O)C(=Cc2cn(Cc3cn(-c4ccccc4)nn3)c3ncccc23)C(=O)O1 | > 100 µM | –
15 | 21.4 µM | 25.8 µM | 19.4 µM | 27.7 µM | 30.1 µM | CC1(C)OC(=O)C(=Cc2cn(Cc3cn(-c4ccc([N+](=O)[O-])cc4)nn3)c3ncccc23)C(=O)O1 | > 100 µM | –
16 | 20.2 µM | 24.2 µM | 16.6 µM | 33.8 µM | 26.1 µM | CC1(C)OC(=O)C(=Cc2cn(Cc3cn(-c4ccc(Cl)c(Cl)c4)nn3)c3ncccc23)C(=O)O1 | > 100 µM | –
